Measurements published in patent publication US20070191316A1, “VITAMIN D ANALOG - NEL, METHODS AND USES THEREOF” (WISCONSIN ALUMNI RESEARCH FOUNDATION, priority 2006, published 2007).
“Also recorded” adds a separate entry of the source.

Experiments:
[1] = test system: 24-hdyroxylase (24Ohase) gene promoter in ROS 17/2.8 (bone) cells; assay: In vitro transcription assay (luciferase reporter); type: cell-based; details: Ros17/2.8 (bone) cells, 24-hydroxylase promoter-luciferase, 16 h; FIG. 5
Protocol: FIG. 5 is a graph comparing the in vitro transcription activity of NEL with that of 1,25(OH)2D3.
(C) In vitro Transcription Assay
Transcription activity was measured in ROS 17/2.8 (bone) cells that were stably transfected with a 24-hdyroxylase (24Ohase) gene promoter upstream of a luciferase reporter gene (Arbour et al., 1998). Cells were given a range of doses. Sixteen hours after dosing the cells were harvested and luciferase activities were measured using a luminometer. (RLU=relative luciferase units)

[2] = test system: Human promyelocytic leukemia (HL60) cells; assay: HL-60 differentiation (nitro blue tetrazolium reduction); type: cell-based; details: 4 days, NBT reduction, FIG. 4
Protocol: FIG. 4 is a graph comparing the percent HL-60 cell differentiation as a function of the concentration of NEL with that of 1,25(OH)2D3.
(B) HL-60 Differentiation
The study drugs were dissolved in ethanol and the concentrations determined using UV spectrophotometry. Serial dilutions were prepared so that a range of drug concentrations could be tested without changing the final concentration of ethanol (≦0.2%) present in the cell cultures.
Human promyelocytic leukemia (HL60) cells were grown in RPMI-1640 medium containing 10% fetal bovine serum. The cells were incubated at 37° C. in the presence of 5% CO2.
HL60 cells were plated at 1.2×10^5 cells/ml. Eighteen hours after plating, cells in duplicate were treated with drug. Four days later, the cells were harvested and a nitro blue tetrazolium reduction assay was performed (Collins et al., 1979; J. Exp. Med. 149:969-974). The percentage of differentiated cells was determined by counting a total of 200 cells and recording the number that contained intracellular black-blue formazan deposits. Verification of differentiation to monocytic cells was determined by measuring phagocytic activity (data not shown).

[3] = Intestinal calcium transport (everted gut sac method); type: in vivo, Sprague-Dawley rats; details: rats, four consecutive ip doses; equimolar or 27 times the dose of 1α,25-dihydroxyvitamin D3; FIG. 3
Description: FIG. 3 is a bar graph comparing the intestinal calcium transport activity of NEL with that of 1,25(OH)2D3.
(§1) (D) Intestinal Calcium Transport and Bone Calcium Mobilization
(§2) Male, weanling Sprague-Dawley rats were placed on Diet 11 (0.47% Ca) diet+AEK for one week followed by Diet 11 (0.02% Ca)+AEK for 3 weeks. The rats were then switched to a diet containing 0.47% Ca for one week followed by two weeks on a diet containing 0.02% Ca. Dose administration began during the last week on 0.02% calcium diet. Four consecutive ip doses were given approximately 24 hours apart. Twenty-four hours after the last dose, blood was collected from the severed neck and the concentration of serum calcium determined as a measure of bone calcium mobilization. The first 10 cm of the intestine was also collected for intestinal calcium transport analysis using the everted gut sac method.

[4] = PTH suppression and hypercalcemia; type: in vivo, Sprague-Dawley rats; details: normal rats; expected
Protocol: (E) PTH Suppression and Hypercalcemia
Adult, female Sprague-Dawley rats are obtained from Harlan (Madison, Wis.).
Upon receipt, the animals are identified by individual tail marks. Animals may then be housed in suspended, stainless steel, wire-bottom cages. Each cage may contain one animal. The animal rooms are maintained at a temperature of 68 to 72° F. and a relative humidity of 25 to 75%. The holding rooms are set to provide 12 hours of light per day. Water and a purified rodent diet (Suda et al., Purified Rodent Diet-Diet 11) containing […] 0.3% phosphorus and fat soluble vitamins A, D, E and K are provided ad libitum
Animals are randomly assigned to treatment groups (5 animals/group). All doses are administered intraperitoneally in 100 microliters of propylene glycol. […]
Twenty-four hours after the final dose, blood is collected from the tail artery and the concentration of bioactive serum PTH is measured using the rat BioActive Intact PTH ELISA Kit from Immutopics, Inc. (San Clemente, Calif.).
Twenty-four hours after the final dose, approximately 1 ml of blood is collected from the tail artery of each experimental animal. […] The level of calcium is determined by diluting the serum into 0.1% lanthum chloride and measuring the absorbance on an atomic absorption spectrophotometer (Perkin Elmer Model 3110, Shelton, Conn.).

[5] = molecular target: T1, full-length recombinant rat vitamin D receptor (Rattus norvegicus, UniProt P13053); assay: Vitamin D receptor competitive binding with [3H]-1,25-(OH)2-D3; details: competition with [3H]-1,25-(OH)2-D3, recombinant rat receptor; FIG. 1
T1 construct: Full-length recombinant rat receptor was expressed in E. coli BL21(DE3) Codon Plus RIL cells; histidine tag (C); made in house; host or cells: E. coli BL21(DE3) Codon Plus RIL
T1 sequence (P13053 1-423): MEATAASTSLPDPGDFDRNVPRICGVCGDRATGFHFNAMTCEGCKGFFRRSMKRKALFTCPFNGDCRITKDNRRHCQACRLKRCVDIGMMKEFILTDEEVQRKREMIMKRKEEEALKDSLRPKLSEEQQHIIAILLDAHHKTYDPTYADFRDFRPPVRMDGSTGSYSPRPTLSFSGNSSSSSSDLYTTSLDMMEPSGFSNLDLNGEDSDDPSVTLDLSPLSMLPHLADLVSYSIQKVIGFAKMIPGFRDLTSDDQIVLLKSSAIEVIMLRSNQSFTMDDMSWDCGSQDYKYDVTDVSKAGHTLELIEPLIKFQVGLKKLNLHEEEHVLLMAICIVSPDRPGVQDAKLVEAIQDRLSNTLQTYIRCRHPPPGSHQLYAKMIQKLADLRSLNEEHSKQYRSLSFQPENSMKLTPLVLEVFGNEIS
Protocol: The first system was a nickel affinity resin that utilizes the C-terminal histidine tag on this protein. The protein that was eluted from this resin was further purified using ion exchange chromatography (S-Sepharose Fast Flow). Aliquots of the purified protein were quick frozen in liquid nitrogen and stored at −80° C. until use. For use in binding assays, the protein was diluted in TEDK50 (50 mM Tris, 1.5 mM EDTA, pH7.4, 5 mM DTT, 150 mM KCl) with 0.1% Chaps detergent. The receptor protein and ligand concentration was optimized such that no more than 20% of the added radiolabeled ligand was bound to the receptor.
The following day, 100 mcl of hydroxylapatite slurry (50%) was added to each tube and mixed at 10-minute intervals for 30 minutes. The hydroxylapaptite was collected by centrifugation and then washed three times with Tris-EDTA buffer (50 mM Tris, 1.5 mM EDTA, pH 7.4) containing 0.5% Titron X-100. After the final wash, the pellets were transferred to scintillation vials containing 4 ml of Biosafe II scintillation cocktail, mixed and placed in a scintillation counter. Total binding was determined from the tubes containing only radiolabeled ligand.

[6] = Bone calcium mobilization (serum calcium); type: in vivo, Sprague-Dawley rats; details: rats, four consecutive ip doses; equimolar or 27 times the dose of 1α,25-dihydroxyvitamin D3; FIG. 2
Description: FIG. 2 is a bar graph comparing the bone calcium mobilization activity of NEL with that of 1,25(OH)2D3.
as §1, §2

[7] = molecular target: T2, vitamin D receptors (Homo sapiens, UniProt P11473); details: prior-art patents; cited from earlier work
T2 sequence (P11473 1-427): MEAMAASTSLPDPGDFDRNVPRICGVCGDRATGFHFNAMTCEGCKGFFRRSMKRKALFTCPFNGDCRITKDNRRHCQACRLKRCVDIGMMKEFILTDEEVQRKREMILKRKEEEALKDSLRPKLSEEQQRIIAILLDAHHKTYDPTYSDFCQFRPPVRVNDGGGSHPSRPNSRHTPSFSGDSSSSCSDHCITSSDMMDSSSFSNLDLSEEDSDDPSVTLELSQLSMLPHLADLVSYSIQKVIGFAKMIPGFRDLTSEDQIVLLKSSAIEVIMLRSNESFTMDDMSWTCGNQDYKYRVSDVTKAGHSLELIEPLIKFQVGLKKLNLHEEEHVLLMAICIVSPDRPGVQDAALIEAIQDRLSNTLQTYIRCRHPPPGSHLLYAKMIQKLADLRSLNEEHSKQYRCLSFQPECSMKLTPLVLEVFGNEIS

[8] = test system: cell differentiation; details: prior art; cited from earlier work
[9] = cited from earlier work; for calcemic activity as compared to 1α,25-dihydroxyvitamin D3: prior-art patents

Compound	binding activity to vitamin D receptors [7]	cell differentiation activity [8]	calcemic activity as compared to 1α,25-dihydroxyvitamin D3 [9]	further results
C=C1[C@H](O)CC(=C/C=C2\CCC[C@]3(C)[C@@H]([C@H](C)CCCC(C)O)CC[C@@H]23)C[C@H]1O (stereo partly drawn) [NEL, (20R, 25S)-2-Methylene-19,26-dinor-1α,25-dihydroxyvitamin D3]	–	–	–	stimulating transcription of a reporter gene compared with 1α,25-dihydroxyvitamin D3 [1]: equally active; inducing differentiation of HL-60 cells compared with 1α,25-dihydroxyvitamin D3 [2]: equally active; intestinal calcium transport activity compared with 1α,25-dihydroxyvitamin D3 [3]: limited calcemic activity; also recorded: very low intestinal calcium transport activity; suppressing parathyroid hormone levels [4]: significant activity; binding to the vitamin D receptor compared with 1α,25-dihydroxyvitamin D3 [5]: somewhat more active; also recorded: relatively high binding; bone calcium mobilization (serum calcium) compared with 1α,25-dihydroxyvitamin D3 [6]: limited calcemic activity; also recorded: very low ability to mobilize calcium from bone
C=C1[C@H](O)CC(=C/C=C2\CCC[C@]3(C)[C@@H](CC)CC[C@@H]23)C[C@H]1O [1α-hydroxy-2-methylene-19-nor-pregnacalciferol]	relatively high	relatively high	little if any	–
1α-hydroxy-2-methylene-19-nor-(20S)-homopregnacalciferol	relatively high	relatively high	little if any	–
1α-hydroxy-2-methylene-19-nor-bishomopregnacalciferol	relatively high	relatively high	little if any	–
C[C@H](CCCC(C)(C)O)[C@H]1CC[C@H]2/C(=C/C=C3C[C@@H](O)C[C@H](O)C3)CCC[C@]12C [1α,25-dihydroxy-19-nor-vitamin D3]	–	high potency	–	calcium mobilizing activity ([9]; prior art): very low
